Assay results published in ChEMBL document CHEMBL4265969, “Design, synthesis and biological evaluation of (2S,3R,4R,5S,6R)-5-fluoro-6-(hydroxymethyl)-2-aryltetrahydro-2H-pyran-3,4-diols as potent and orally active SGLT dual inhibitors” (Bioorg Med Chem Lett, 2018).

Legend:
[1] = Metabolic stability in mouse liver microsomes at 1 uM after 10 mins in presence of NADPH; type: ADME, microsome; details: read-out: Stability
[2] = Metabolic stability in rat liver microsomes at 1 uM after 10 mins in presence of NADPH; type: ADME, microsome; details: read-out: Stability
[3] = biological target: T1, Sodium/glucose cotransporter 2 (Homo sapiens, UniProt P31639); assay: Inhibition of human kidneyl SGLT2 expressed in CHOK1 cells assessed as reduction in Na-dependent [14C]-AMG uptake preincubated for 10 mins followed by [14C]-AMG addition measured after 2 hrs by TopCount method; type: cell-based
T1 sequence (P31639 whole entry): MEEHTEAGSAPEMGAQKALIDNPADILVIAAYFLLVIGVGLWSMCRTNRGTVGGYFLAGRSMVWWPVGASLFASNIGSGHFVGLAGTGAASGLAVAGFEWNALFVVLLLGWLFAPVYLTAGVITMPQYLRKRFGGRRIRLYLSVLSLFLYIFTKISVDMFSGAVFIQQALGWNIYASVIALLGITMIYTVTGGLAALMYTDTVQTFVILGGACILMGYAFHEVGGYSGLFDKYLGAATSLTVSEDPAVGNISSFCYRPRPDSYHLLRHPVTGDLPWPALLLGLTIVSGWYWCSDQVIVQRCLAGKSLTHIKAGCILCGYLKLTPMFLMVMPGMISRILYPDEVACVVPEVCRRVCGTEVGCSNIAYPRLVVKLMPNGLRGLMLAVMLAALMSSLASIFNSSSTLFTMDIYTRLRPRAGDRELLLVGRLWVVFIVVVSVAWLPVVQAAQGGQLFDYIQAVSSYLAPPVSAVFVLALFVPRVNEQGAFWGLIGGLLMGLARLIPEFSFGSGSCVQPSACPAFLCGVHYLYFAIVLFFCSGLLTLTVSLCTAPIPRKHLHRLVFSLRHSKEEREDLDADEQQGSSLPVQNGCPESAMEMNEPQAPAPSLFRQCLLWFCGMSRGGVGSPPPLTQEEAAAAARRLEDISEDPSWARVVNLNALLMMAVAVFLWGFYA

[4] = Metabolic stability in human liver microsomes at 1 uM after 10 mins in presence of NADPH; type: ADME, microsome; details: read-out: Stability
[5] = biological target: T2, Sodium/glucose cotransporter 2 (Homo sapiens) (UniProt P31639); assay: Inhibition of human kidneyl SGLT2 expressed in CHOK1 cells assessed as reduction in Na-dependent [14C]-AMG uptake at 0.3 uM preincubated for 10 mins followed by [14C]-AMG addition measured after 2 hrs by TopCount method relative to control; type: cell-based
T2 sequence (whole entry): T1 sequence (P31639 whole entry)

[6] = biological target: T3, SGLT1 (sodium/glucose cotransporter 1) (Homo sapiens, UniProt P13866); assay: Inhibition of human small intestinal SGLT1 expressed in CHOK1 cells assessed as reduction in Na-dependent [14C]-AMG uptake at 0.3 uM preincubated for 10 mins followed by [14C]-AMG addition measured after 2 hrs by TopCount method relative to control; type: cell-based; details: CHO-K1 cells expressing human SGLT1, probe [14C]-AMG
T3 sequence (P13866 whole entry): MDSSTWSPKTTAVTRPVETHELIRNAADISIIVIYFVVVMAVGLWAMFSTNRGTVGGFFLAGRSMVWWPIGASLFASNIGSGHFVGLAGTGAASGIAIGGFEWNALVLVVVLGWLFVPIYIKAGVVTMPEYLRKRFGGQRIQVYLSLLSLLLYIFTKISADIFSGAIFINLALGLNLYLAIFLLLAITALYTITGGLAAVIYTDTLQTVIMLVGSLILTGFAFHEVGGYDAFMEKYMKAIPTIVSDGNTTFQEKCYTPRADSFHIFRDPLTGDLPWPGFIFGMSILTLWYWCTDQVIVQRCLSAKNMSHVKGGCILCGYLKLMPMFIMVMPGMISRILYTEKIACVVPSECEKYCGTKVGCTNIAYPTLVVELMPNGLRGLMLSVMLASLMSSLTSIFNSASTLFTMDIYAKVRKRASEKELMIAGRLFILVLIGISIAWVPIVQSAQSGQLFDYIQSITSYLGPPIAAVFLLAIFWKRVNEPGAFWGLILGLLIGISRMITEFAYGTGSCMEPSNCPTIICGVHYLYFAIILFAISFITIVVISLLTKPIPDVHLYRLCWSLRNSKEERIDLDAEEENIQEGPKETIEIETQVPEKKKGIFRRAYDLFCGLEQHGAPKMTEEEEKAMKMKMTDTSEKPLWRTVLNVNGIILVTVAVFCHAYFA

[7] = AUC (0 to infinity) in Sprague-Dawley rat at 10 mg/kg, po; type: ADME, organism-based; set-up: dose 10 mg/kg, route oral, time infinity; details: in vivo
[8] = Half life in Sprague-Dawley rat at 2 mg/kg, iv; type: ADME, organism-based; details: in vivo
[9] = Tmax in Sprague-Dawley rat at 10 mg/kg, po; type: ADME, organism-based; details: in vivo
[10] = Cmax in Sprague-Dawley rat at 10 mg/kg, po; type: ADME, organism-based; set-up: dose 10 mg/kg, route oral; details: in vivo
[11] = Volume of distribution at steady state in Sprague-Dawley rat at 2 mg/kg, iv; type: ADME, organism-based; details: in vivo, read-out: Vdss
[12] = Clearance in Sprague-Dawley rat at 2 mg/kg, iv; type: ADME, organism-based; details: in vivo
[13] = Oral bioavailability in Sprague-Dawley rat at 10 mg/kg; type: ADME, organism-based; details: in vivo
[14] = Half life in monkey hepatocytes at 1 uM; type: ADME, cell-based, Macaca mulatta, Hepatocyte; details: rhesus monkey
[15] = Half life in Sprague-Dawley rat hepatocytes at 1 uM; type: ADME, cell-based, Hepatocyte
[16] = Half life in dog hepatocytes at 1 uM; type: ADME, cell-based, Canis lupus familiaris, Hepatocyte
[17] = Half life in human hepatocytes at 1 uM; type: ADME, cell-based, Hepatocyte
[18] = Half life in Sprague-Dawley rat at 10 mg/kg, po; type: ADME, organism-based; details: in vivo

COc1c([C@@H]2O[C@H](CO)[C@@H](F)[C@H](O)[C@H]2O)cc(Cc2ccc3c(c2)SCCO3)c2c1CCO2
remaining at 10 min, 1 µM [1]: 61%
remaining at 10 min, 1 µM [2]: 12%
IC50 [3]: 8.3 nM
remaining at 10 min, 1 µM [4]: 73%

OC[C@H]1O[C@@H](c2cc(Cc3ccc4c(c3)OCCO4)c(O)c3c2OCC3)[C@H](O)[C@@H](O)[C@@H]1F
inhibition [5]: 26%
inhibition at 2 h, 0.3 µM [6]: 31%

OC[C@H]1O[C@@H](c2cc(Cc3ccc4c(c3)OCCO4)c3c(c2O)CCO3)[C@H](O)[C@@H](O)[C@@H]1F
AUC(0-inf) [7]: 307 ng·h/mL
half-life [8]: 0.31 h
remaining at 10 min, 1 µM [1]: 97%
Tmax [9]: 0.25 h
remaining at 10 min, 1 µM [2]: 64%
Cmax [10]: 168 ng/mL
Vd [11]: 1.22 L/kg
clearance [12]: 28.1 mL/min/kg
bioavailability [13]: 4%
remaining at 10 min, 1 µM [4]: 97%

Cc1ccc([C@@H]2O[C@H](CO)[C@@H](F)[C@H](O)[C@H]2O)cc1Cc1cc2c(s1)CCN(C(=O)C1CCCC1)C2
inhibition [5]: 59%
inhibition at 2 h, 0.3 µM [6]: 49%

O=C(O)Cc1ccccc1Nc1c(Cl)cccc1Cl [DICLOFENAC]
half-life at 1 µM [14]: 1 h
half-life at 1 µM [15]: 0.8 h
half-life at 1 µM [16]: 5.2 h
half-life at 1 µM [17]: 0.7 h

Cc1ccc([C@@H]2O[C@H](CO)[C@@H](F)[C@H](O)[C@H]2O)cc1Cc1cc2c(s1)CCN(C#N)C2
inhibition [5]: 76%

Cc1cc(O)c([C@@H]2O[C@H](CO)[C@@H](F)[C@H](O)[C@H]2O)cc1Cc1cc2c(s1)CCN(C(=O)c1nccs1)C2
remaining at 10 min, 1 µM [1]: 66%
remaining at 10 min, 1 µM [2]: 91%
remaining at 10 min, 1 µM [4]: 69%

Cc1cc(O)c([C@@H]2O[C@H](CO)[C@@H](F)[C@H](O)[C@H]2O)cc1Cc1cc2c(s1)CCN(C(=O)N1CCCC1)C2
remaining at 10 min, 1 µM [1]: 74%
remaining at 10 min, 1 µM [2]: 82%
IC50 [3]: 13.6 nM
remaining at 10 min, 1 µM [4]: 71%

COc1c(Cc2ccc3c(c2)OCCO3)cc([C@@H]2O[C@H](CO)[C@@H](F)[C@H](O)[C@H]2O)c2c1CCO2
remaining at 10 min, 1 µM [1]: 94%
remaining at 10 min, 1 µM [2]: 2%
IC50 [3]: 7.5 nM
remaining at 10 min, 1 µM [4]: 91%

Cc1ncc2n1-c1ccc(Cl)cc1C(c1ccccc1F)=NC2 [MIDAZOLAM]
half-life at 1 µM [14]: 1.4 h
half-life at 1 µM [17]: 1 h

COc1cc(C)c(Cc2cc3c(s2)CCN(C#N)C3)cc1[C@@H]1O[C@H](CO)[C@@H](F)[C@H](O)[C@H]1O
IC50 [3]: 5.3 nM

Cc1ccc([C@@H]2O[C@H](CO)[C@@H](F)[C@H](O)[C@H]2O)cc1Cc1cc2c(s1)CCN(C(=O)c1nccs1)C2
inhibition [5]: 73%
inhibition at 2 h, 0.3 µM [6]: 39%

Cc1cc(O)c([C@@H]2O[C@H](CO)[C@@H](F)[C@H](O)[C@H]2O)cc1Cc1cc2c(s1)CCN(C#N)C2
AUC(0-inf) [7]: 44.6 ng·h/mL
half-life [8]: 0.99 h
half-life [18]: 1.44 h
remaining at 10 min, 1 µM [1]: 91%
Tmax [9]: 2.2 h
remaining at 10 min, 1 µM [2]: 79%
Cmax [10]: 13.7 ng/mL
Vd [11]: 3.79 L/kg
clearance [12]: 149 mL/min/kg
bioavailability [13]: 5%
IC50 [3]: 2.6 nM
remaining at 10 min, 1 µM [4]: 95%

CCOC(=O)N1CCc2sc(Cc3cc([C@@H]4O[C@H](CO)[C@@H](F)[C@H](O)[C@H]4O)c(O)cc3C)cc2C1
remaining at 10 min, 1 µM [1]: 86%
remaining at 10 min, 1 µM [2]: 78%
remaining at 10 min, 1 µM [4]: 80%
